Results from patent publication US12624031B2, “Inhibitors of ubiquitin specific peptidase 22 (USP22) and uses thereof for treating diseases and disorders” (Northwestern University, priority 2022, dated 2026).

Test system: Foxp3 in iTreg cells
Test: in vitro dose response study in WT and Usp22-null iTreg cells
Format: cell-based, murine
Description: FIG. 6: Usp22i-S02 halts Usp22-mediated Foxp3 deubiqutination. A, Graphical representation of Foxp3 MFI change in WT versus 22KO iTreg cells treated with various doses of Usp22i-S02 (n=3). B, Representative histogram of Foxp3 MFI level in iTreg cells as Usp22 inhibitor concentration increases from 0-20 μg/mL. C, Cell survival of iTreg cells treated with various doses of Usp22i-S02 (n=3). D, FOXP3 and USP22 protein level in WT and 22KO mice treated with 10 μg/mL Usp22i-S02. E-F, Graphical and representative data of Foxp3 MFI of human Treg cells treated with various doses of Usp22i-S02 (n=3). G, Graphical representation of Foxp3 MFI in WT, Usp21-null, and Usp22-null Treg cells treated with Usp22i-S02 at 10 μg/mL (n=3). H, FOXP3 and USP22 protein degradation of cycloheximide (10 μg/mL) treated iTreg cells with or without the addition of 10 μg/mL of Usp22i-S02. I-J, Endogenous DUB assay IP in iTreg cells of USP22 with FOXP3 under increasing concentrations of Usp22i-S02. K, Foxp3 mRNA level in iTreg cells as Usp22 inhibitor concentration increases from 0-20 μg/mL (n=3). L, FOXP3 and USP22 level in WT iTreg cells with or without 20 μg/mL Usp22 inhibitor treated with 20 μM MG132. M, Graphical representation of the percentage of decrease of Foxp3 MFI in either WT or Usp22-null nTreg cells placed in low glucose conditions with or without the addition of 10 μg/mL of Usp22i-S02 (n=7-8). N, Graphical representation of the percentage of decrease of Foxp3 MFI in WT nTreg cells placed in hypoxic or low amino acid conditions with or without the addition of 10 μg/mL of Usp22i-S02 (n=3-5). G, Two-tailed unpaired t-test comparing within groups was performed to determine statistical significance. K, One-way ANOVA with Dunnet's multiple comparisons between rows relative to control was performed to determine statistical significance. M-N, Two-way ANOVA with Sidak's multiple comparisons between rows was performed to determine statistical significance. All data are presented as mean±stdev. NS, not significant. *P<0.05, **P<0.01, ***P<0.001, ****P<0.0001.
After initial screening, we ran an in vitro dose response study on compound S02, dubbed Usp22i-S02, in both WT and Usp22-null iTreg cells (FIG. 6A-C).

**Q.** Which “viability of iTreg cells” value (10 μg/mL) does the source give for `N#Cc1c2c(c(Nc3ccccc3)n3c1nc1ccccc13)CCCC2` [USP22i-S02, 11-anilino-7,8,9,10-tetrahydrobenzimidazo[1,2-b]isoquinoline-6-carbonitrile] here?
**A.** little effect on viability

**Q.** And the “FOXP3 degradation with MG132” value (20 μg/mL inhibitor, 20 μM MG132)?
**A.** halted by MG132 protease inhibition

**Q.** What about the “FOXP3 degradation in cycloheximide treated iTreg cells” value (CHX 10 μg/mL, 10 μg/mL inhibitor) of the same molecule?
**A.** enhanced FOXP3 degradation

**Q.** And the “effect on iTreg cells lacking Usp21” value (Usp21-null, 10 μg/mL)?
**A.** full effect

**Q.** And the “FOXP3 levels in murine Treg cells lacking Usp22” value (Usp22-null, in vivo and in vitro)?
**A.** minimal effect on FOXP3 levels

**Q.** And the “Foxp3 under glucose starvation in Treg cells lacking Usp22” value (Usp22-null, low glucose, 10 μg/mL)?
**A.** no effect on Foxp3

**Q.** And the “Foxp3 stability under glucose starvation” value (WT Treg cells, low glucose, 10 μg/mL)?
**A.** significantly diminished Foxp3 stability

**Q.** What about the “Foxp3 MFI and protein level” value (WT iTreg cells, 10 μg/mL) of the same molecule?
**A.** decreases in Foxp3 MFI and protein level comparable to Usp22-null iTreg cells

**Q.** What about the “Foxp3 stability under hypoxic and amino acid starvation conditions” value (WT nTreg cells, 10 μg/mL) of the same molecule?
**A.** reduces Foxp3 stability

**Q.** What about the Foxp3 transcription (iTreg cells, 0-20 μg/mL) of the same molecule?
**A.** decreased Foxp3 transcription

**Q.** And the FOXP3 ubiquitination (iTreg cells, endogenous DUB assay IP)?
**A.** increased FOXP3 ubiquitination
